Test system: Plasmodium berghei
Experiment: Luciferase/luciferin-expressing antifolate-resistant parasites were used to infect a culture of HepG2 cells that were pre-incubated with compounds. Infected hepatocytes emit light due to the luciferase reaction. Assay results are presented as the percent inhibition of light emission compared to control. […]
Assay type: functional
Details: sporozoite; for IC90: read-out: LUCIFERASE INFECTION ASSAY - IC90

SMILES | IC90 | further results
COc1cc2c(cc1OC)C(c1ccccc1C(F)(F)F)CC(=O)N2 (stereo not given) | > 9.39 µM | IC50 (PBLUC_HILL_SLOPE 2.57, PBLUC_R_SQUARED 0.0741, read-out: LUCIFERASE INFECTION ASSAY - IC50): 7.98 µM
Cc1nnsc1C(=O)Nc1ccc(-n2nc(C(F)(F)F)cc2C(F)(F)F)cc1 | > 7.83 µM | IC50 (PBLUC_HILL_SLOPE 2.63, PBLUC_R_SQUARED 0.209, read-out: LUCIFERASE INFECTION ASSAY - IC50): 5.65 µM
Cc1cc(O)nc(N/N=C/c2c(C)nn(-c3ccccc3Cl)c2Cl)n1 | 2.19 µM | IC50 (PBLUC_HILL_SLOPE 2.61, PBLUC_R_SQUARED 0.512, read-out: LUCIFERASE INFECTION ASSAY - IC50): 0.943 µM
CN(C)c1ccc(-c2cnc3cnc(-c4ccc(C(=O)NCCO)cc4)cn23)cc1 | > 8.22 µM | IC50 (PBLUC_HILL_SLOPE 2.64, PBLUC_R_SQUARED 0.078, read-out: LUCIFERASE INFECTION ASSAY - IC50): 6.1 µM
Cc1cc(CSc2ccccc2C(=O)NNC(=O)c2ccccc2O)on1 | > 10 µM | IC50 (PBLUC_HILL_SLOPE 2.63, PBLUC_R_SQUARED 0.786, read-out: LUCIFERASE INFECTION ASSAY - IC50): 7.42 µM
N#Cc1c(Cl)cccc1Oc1ccc(S(=O)(=O)Oc2c(Cl)cccc2Cl)cc1 | > 7.26 µM | IC50 (PBLUC_HILL_SLOPE 2.67, PBLUC_R_SQUARED 0.0667, read-out: LUCIFERASE INFECTION ASSAY - IC50): 6.81 µM
NC(=O)Cc1ccc(C(=O)CSc2ncnc3sc(-c4ccccc4)cc23)s1 | > 10 µM | IC50 (PBLUC_HILL_SLOPE 2.63, PBLUC_R_SQUARED 0.33, read-out: LUCIFERASE INFECTION ASSAY - IC50): 7.38 µM
CCn1nc(C(=O)NCc2ccc(OC)cc2)c2c1CCN(C(=O)c1cc(C)n[nH]1)C2 | 3.69 µM | IC50 (PBLUC_HILL_SLOPE 2.57, PBLUC_R_SQUARED 0.68, read-out: LUCIFERASE INFECTION ASSAY - IC50): 1.57 µM
COc1ccc(OC)c(-c2csc(NC(=O)c3[nH]c(C)c(C(C)=O)c3C)n2)c1 | > 10 µM | IC50 (PBLUC_HILL_SLOPE 2.64, PBLUC_R_SQUARED 0.217, read-out: LUCIFERASE INFECTION ASSAY - IC50): 5.92 µM
CC(NCC(O)COc1ccccc1C(C)(C)C)c1ccccc1 (stereo not given) | > 9.07 µM | IC50 (PBLUC_HILL_SLOPE 2.67, PBLUC_R_SQUARED 0.166, read-out: LUCIFERASE INFECTION ASSAY - IC50): 4.35 µM
Cc1cc(Nc2ccc(C(c3ccc(C(=O)O)cc3)c3ccc(Nc4cc(C)nn4-c4ccccc4)nc3Cl)c(Cl)n2)n(-c2ccccc2)n1 | > 10 µM | IC50 (PBLUC_HILL_SLOPE 2.61, PBLUC_R_SQUARED 0.324, read-out: LUCIFERASE INFECTION ASSAY - IC50): 6.2 µM
CN(C)S(=O)(=O)c1cc(C(=O)Nc2nc(-c3ccccc3)cn2/N=C/c2ccccc2)ccc1Cl | > 10 µM | IC50 (PBLUC_HILL_SLOPE 2.59, PBLUC_R_SQUARED 0.747, read-out: LUCIFERASE INFECTION ASSAY - IC50): 5.75 µM
COc1cc(OC)cc(-c2cc3c(Nc4cccc(S(C)(=O)=O)c4)nccc3n2C)c1 | > 10 µM | IC50 (PBLUC_HILL_SLOPE 2.63, PBLUC_R_SQUARED 0.0611, read-out: LUCIFERASE INFECTION ASSAY - IC50): 6.92 µM
CCOC(=O)N1CCC(Nc2ncnc3c2oc2ccccc23)CC1 | > 10 µM | IC50 (PBLUC_HILL_SLOPE 2.64, PBLUC_R_SQUARED 0.787, read-out: LUCIFERASE INFECTION ASSAY - IC50): 6.72 µM
CNc1nc2cnc(Nc3ccc(C(C)C)cc3)cc2n1Cc1ccc(OC)c(OC)c1 | > 10 µM | IC50 (PBLUC_HILL_SLOPE 2.59, PBLUC_R_SQUARED 0.223, read-out: LUCIFERASE INFECTION ASSAY - IC50): 6.81 µM
CCCCCc1ccc(-c2nnc(SCC(=O)c3ccccc3)[nH]2)cc1 | > 9.03 µM | IC50 (PBLUC_HILL_SLOPE 2.65, PBLUC_R_SQUARED 0.501, read-out: LUCIFERASE INFECTION ASSAY - IC50): > 9.03 µM
Cc1c(C(=O)Nc2ccnn2Cc2ccccc2)cnn1C(C)(C)C | > 10 µM | IC50 (PBLUC_HILL_SLOPE 2.67, PBLUC_R_SQUARED 0.113, read-out: LUCIFERASE INFECTION ASSAY - IC50): > 10 µM
CN(C)CCCCCCOc1ccc2c(c1)CCC1C2CCC2(C)C(=O)CCC12 (stereo not given) | > 8.3 µM | IC50 (PBLUC_HILL_SLOPE 2.65, PBLUC_R_SQUARED 0.355, read-out: LUCIFERASE INFECTION ASSAY - IC50): 3.69 µM
Cc1cccc(C)c1N1C(=O)C=CC1=O | > 16.4 µM | IC50 (PBLUC_HILL_SLOPE 2.64, PBLUC_R_SQUARED 0.435, read-out: LUCIFERASE INFECTION ASSAY - IC50): > 16.4 µM
CNc1nc2cnc(Nc3cccc(OC(F)(F)F)c3)cc2n1-c1cc(OC)c(OC)c(OC)c1 | > 10 µM | IC50 (PBLUC_HILL_SLOPE 2.6, PBLUC_R_SQUARED 0.253, read-out: LUCIFERASE INFECTION ASSAY - IC50): 6.55 µM

SMILES | IC90 | further results
CC1=C/C(=N\NC(=O)c2ccc(Br)cc2)CC(C)(C)C1 | > 10 µM | IC50 (PBLUC_HILL_SLOPE 2.58, PBLUC_R_SQUARED 0.715, read-out: LUCIFERASE INFECTION ASSAY - IC50): 6.68 µM
CCc1nn2c(NCc3cccnc3)cc(C)nc2c1-c1ccccc1 | > 9.61 µM | IC50 (PBLUC_HILL_SLOPE 2.62, PBLUC_R_SQUARED 0.301, read-out: LUCIFERASE INFECTION ASSAY - IC50): 7.32 µM
O=C(Nc1ccc(-n2cccn2)nc1)C1=NN(c2ccccc2)C(=O)CN1 | > 10 µM | IC50 (PBLUC_HILL_SLOPE 2.66, PBLUC_R_SQUARED 0.194, read-out: LUCIFERASE INFECTION ASSAY - IC50): > 10 µM
COc1cccc(Cn2nc(C(=O)NC3CC3)c3c2CCN(Cc2cc4c(cc2Cl)OCO4)C3)c1 | > 6.67 µM | IC50 (PBLUC_HILL_SLOPE 2.62, PBLUC_R_SQUARED 0.537, read-out: LUCIFERASE INFECTION ASSAY - IC50): 3.5 µM
C=C(C)c1cccc(C(C)(C)NC(=O)NNc2ccnc3cc(Cl)ccc23)c1 | 9.06 µM | IC50 (PBLUC_HILL_SLOPE 2.57, PBLUC_R_SQUARED 0.548, read-out: LUCIFERASE INFECTION ASSAY - IC50): 3.86 µM
Cc1ccc(C(=O)Nc2nc3ccccc3[nH]2)cc1NC(=O)c1ccco1 | > 10 µM | IC50 (PBLUC_HILL_SLOPE 2.56, PBLUC_R_SQUARED 0.483, read-out: LUCIFERASE INFECTION ASSAY - IC50): 4.68 µM
Cc1cc(NC(=O)c2ccc(-c3cccc4ccccc34)s2)no1 | > 10 µM | IC50 (PBLUC_HILL_SLOPE 2.6, PBLUC_R_SQUARED 0.519, read-out: LUCIFERASE INFECTION ASSAY - IC50): 5.02 µM
CCN(CC)S(=O)(=O)c1ccc(N/N=C/c2c(-c3ccccc3)[nH]c3ccccc23)nc1 | > 10 µM | IC50 (PBLUC_HILL_SLOPE 2.64, PBLUC_R_SQUARED 0.392, read-out: LUCIFERASE INFECTION ASSAY - IC50): 4.46 µM
Cc1cc([N+](=O)[O-])cc[n+]1[O-] | > 21.4 µM | IC50 (PBLUC_HILL_SLOPE 2.57, PBLUC_R_SQUARED 0.305, read-out: LUCIFERASE INFECTION ASSAY - IC50): 14.6 µM
O=C(c1[nH]nc2ccccc12)N1CCN(S(=O)(=O)c2cccs2)CC1 | > 10 µM | IC50 (PBLUC_HILL_SLOPE 2.58, PBLUC_R_SQUARED 0.457, read-out: LUCIFERASE INFECTION ASSAY - IC50): 7.61 µM
COc1ccc(C(N)=O)c(OCCC23CC4CC(CC(C4)C2)C3)c1 | > 10 µM | IC50 (PBLUC_HILL_SLOPE 2.6, PBLUC_R_SQUARED 0.547, read-out: LUCIFERASE INFECTION ASSAY - IC50): 6.07 µM
CN1CCN(c2ccc(Cl)cc2NC(=O)Cn2c3ccccc3c(=O)c3ccccc32)CC1 | > 10 µM | IC50 (PBLUC_HILL_SLOPE 2.6, PBLUC_R_SQUARED 0.61, read-out: LUCIFERASE INFECTION ASSAY - IC50): 4.43 µM
Cc1cc(C(=O)N/N=C/c2c(-c3ccccc3)nc3ccccn23)c(C)o1 | > 10 µM | IC50 (PBLUC_HILL_SLOPE 2.6, PBLUC_R_SQUARED 0.44, read-out: LUCIFERASE INFECTION ASSAY - IC50): 6.44 µM
O=C(Nc1ccc(OC(F)(F)F)cc1)Nc1cc(-c2ccco2)n[nH]1 | > 9.37 µM | IC50 (PBLUC_HILL_SLOPE 2.58, PBLUC_R_SQUARED 0.157, read-out: LUCIFERASE INFECTION ASSAY - IC50): 7.52 µM
Cc1nn(-c2ccc(F)cc2)c2ncc(C(=O)Nc3nc(C4CC4)cs3)cc12 | 4.45 µM | IC50 (PBLUC_HILL_SLOPE 2.65, PBLUC_R_SQUARED 0.58, read-out: LUCIFERASE INFECTION ASSAY - IC50): 1.94 µM
O=C(c1cc(C2=NNC(=Nc3ccc(Cl)cc3)SC2)c[nH]1)N1CCCC1 | > 10 µM | IC50 (PBLUC_HILL_SLOPE 2.6, PBLUC_R_SQUARED 0.441, read-out: LUCIFERASE INFECTION ASSAY - IC50): 5.46 µM
FC(F)(F)c1ccc(Nc2n[nH]c(=S)s2)cc1 | > 11.9 µM | IC50 (PBLUC_HILL_SLOPE 2.58, PBLUC_R_SQUARED 0.163, read-out: LUCIFERASE INFECTION ASSAY - IC50): 8.08 µM
CC(C)Cn1c(-c2cccs2)nc2c(c(=O)c3ccccc3n2C)c1=O | 8.59 µM | IC50 (PBLUC_HILL_SLOPE 2.62, PBLUC_R_SQUARED 0.237, read-out: LUCIFERASE INFECTION ASSAY - IC50): 3.71 µM
CCOc1ccc(CN2CCN(C(=O)Cc3c(C)nn(C)c3C)CC2)cc1 | > 10 µM | IC50 (PBLUC_HILL_SLOPE 2.6, PBLUC_R_SQUARED 0.21, read-out: LUCIFERASE INFECTION ASSAY - IC50): > 10 µM
Cc1sc2nc(CSc3ccccc3)nc(N3CCN(CC(=O)NC4CC4)CC3)c2c1C | > 10 µM | IC50 (PBLUC_HILL_SLOPE 2.61, PBLUC_R_SQUARED 0.67, read-out: LUCIFERASE INFECTION ASSAY - IC50): 5.13 µM

From ChEMBL document CHEMBL4483862, “Open-source discovery of chemical leads for next-generation chemoprotective antimalarials” (2018)
